In patent US5807983A, “GNRH antagonist betides” (The Salk Institute for Biological Studies, priority 1996, dated 1998):

System: ovulation in mature female Sprague-Dawley rats
Assay: standard in vivo rat anti-ovulation test
Details: injected in bacteriostatic water at about noon on the day of proestrus
Method: The betide is assayed in vivo to determine its effectiveness to prevent ovulation in female rats. Inthis test, a specified number of mature female Sprague-Dawley rats, e.g. five to ten, each having a body weight from 225 to 250 grams, are injected with a specified microgram dosage of the betide in bacteriostatic water at about noon on the day of proestrus. Proestrus is the […]. A separate female rat group is used as a control to which the peptide is not administered. Each of the control female rats ovulates on the evening of proestrus; the number of the rats treated which ovulate is recorded.

In the case of “Ac-β-D-2Nal-(4Cl)D-Phe-D-3Pal-Ser-Aph(acetyl)-γ-(4-acetamidophenyl)D/L-amidoGly-Leu-Lys(isopropyl)-Pro-D-Ala-NH2 [Betide No. 5]”, the “anti-ovulatory activity: rats ovulating out of rats treated” value (“anti-ovulatory activity” below) (dosage 2.5 μg) is reported as 2 out of 8 and the “anti-ovulatory activity” value (dosage 5 μg) is reported as 1 out of 8.
In the case of “Ac-β-D-2Nal-(4Cl)D-Phe-D-3Pal-Ser-(4-acetyl-aminobenzyl,methyl)D/L-amidoGly-D-Aph(acetyl)-Leu-Lys(isopropyl)-Pro-D-D-Ala-NH2 [Betide No. 4A]”, the “anti-ovulatory activity” value (dosage 1 μg) is reported as 5 out of 8 and the “anti-ovulatory activity” value (dosage 2.5 μg) is reported as 0/8.
In the case of CC(=O)Nc1ccc(C[C@H](NC(=O)C(NC(=O)[C@@H](Cc2cccnc2)NC(=O)[C@@H](Cc2ccc(Cl)cc2)NC(=O)[C@@H](Cc2ccc3ccccc3c2)NC(C)=O)N(C)C=O)C(=O)N[C@H](Cc2ccc(NC(C)=O)cc2)C(=O)N[C@@H](CC(C)C)C(=O)N[C@@H](CCCCNC(C)C)C(=O)N2CCC[C@H]2C(=O)N[C@H](C)C(N)=O)cc1 (single isomer, unassigned) [Betide No. 2 one isomer, Ac-D-2Nal-D-4Cpa-D-3Pal-D/L-(methyl,formyl)aminoGly-Aph(Ac)-D-Aph(Ac)-Leu- Lys(isopropyl)-Pro-D-Ala-NH2], the “anti-ovulatory activity” value (dosage 2.5 μg) is reported as 5 out of 8.
CC(=O)Nc1ccc(C[C@H](NC(=O)C(NC(=O)CO)NC(=O)[C@@H](Cc2cccnc2)NC(=O)[C@@H](Cc2ccc(Cl)cc2)NC(=O)[C@@H](Cc2ccc3ccccc3c2)NC(C)=O)C(=O)N[C@H](Cc2ccc(NC(C)=O)cc2)C(=O)N[C@@H](CC(C)C)C(=O)N[C@@H](CCCCNC(C)C)C(=O)N2CCC[C@H]2C(=O)N[C@H](C)C(N)=O)cc1 (single isomer, unassigned) [Betide No. 2A one of the isomers, Ac-D-2Nal-D-4Cpa-D-3Pal-D/L-Agl(HO-Ac)Aph(Ac)-D-Aph(Ac)-Leu-Lys(isopropyl)-Pro-D-Ala-NH2] was tested, and the “anti-ovulatory activity” value (dosage 5 μg) was 2 out of 8.
In the case of CC(=O)Nc1ccc(C[C@H](NC(=O)[C@H](CO)NC(=O)C(NC(=O)c2cccnc2)NC(=O)[C@@H](Cc2ccc(Cl)cc2)NC(=O)[C@@H](Cc2ccc3ccccc3c2)NC(C)=O)C(=O)N[C@H](Cc2ccc(NC(C)=O)cc2)C(=O)N[C@@H](CC(C)C)C(=O)N[C@@H](CCCCNC(C)C)C(=O)N2CCC[C@H]2C(=O)N[C@H](C)C(N)=O)cc1 (single isomer, unassigned) [Betide No. 1 isomer (1), Ac-D-2Nal-(4Cl)D-Phe-γ-(3-pyridyl)amidoGly-Ser-Aph(acetyl)-D-Aph(acetyl)-Leu-Lys(isopropyl)-Pro-D-Ala-NH2], the “anti-ovulatory activity” value (dosage 1 μg) is reported as “all 3 rats ovulate” and the “anti-ovulatory activity” value (dosage 2.5 μg) is reported as 0 out of 7.
For “Ac-D-2Nal-D-4Cpa-D-3Pal-Ser-Aph(acetyl)-D-Aph(acetyl)-D/L-Agl(methyl,acetyl)-Lys(isopropyl)-Pro-D-Ala-NH2 [Betide No. 6]”, the “anti-ovulatory activity” value (dosage 2.5 μg) was 2 out of 8 and the “anti-ovulatory activity” value (dosage 10 μg) was 0 out of 8.
“Ac-D-2Nal-D-4Cpa-D-3Pal-Ser-Aph(acetyl)-D-Aph(acetyl)-D/L-Agl(isobutyryl)- Lys(isopropyl)-Pro-D-Ala-NH2 [Betide No. 6A]” was tested, and the “anti-ovulatory activity” value (dosage 1 μg) was 6 out of 8, the “anti-ovulatory activity” value (dosage 2.5 μg) was 0 out of 8 and the “anti-ovulatory activity” value (dosage 10 μg) was 0 out of 8.
With “Ac-D-2Nal-D-4Cpa-D-3Pal-Ser-Aph(acetyl)-D-Aph(acetyl)-Leu-D/L-Agl(guanidinoacetyl)-Pro-D-Ala-NH2 [Betide No. 7B]” the “anti-ovulatory activity” value (dosage 1 μg) was 3 out of 4, the “anti-ovulatory activity” value (dosage 2.5 μg) was 1 out of 7 and the “anti-ovulatory activity” value (dosage 5 μg) was 0/4.
With CC(=O)Nc1ccc(C[C@H](NC(=O)C(NC=O)NC(=O)[C@@H](Cc2cccnc2)NC(=O)[C@@H](Cc2ccc(Cl)cc2)NC(=O)[C@@H](Cc2ccc3ccccc3c2)NC(C)=O)C(=O)N[C@H](Cc2ccc(NC(C)=O)cc2)C(=O)N[C@@H](CC(C)C)C(=O)N[C@@H](CCCCNC(C)C)C(=O)N2CCC[C@H]2C(=O)N[C@H](C)C(N)=O)cc1 (single isomer, unassigned) [Betide No. 2B first isomer, Ac-D-2Nal-D-4Cpa-D-3Pal-D/L-Agl(formyl)-Aph(Ac)-D-Aph(Ac)-Leu-Lys(isopropyl)-Pro-D-Ala-NH2] the “anti-ovulatory activity” value (dosage 0.5 μg) was 4 out of 5, the “anti-ovulatory activity” value (dosage 1 μg) was 2 out of 8 and the “anti-ovulatory activity” value (dosage 5 μg) was 0/8.
CC(=O)Nc1ccc(C[C@H](NC(=O)[C@H](CO)NC(=O)C(NC(=O)c2cccnc2)NC(=O)[C@@H](Cc2ccc(Cl)cc2)NC(=O)[C@@H](Cc2ccc3ccccc3c2)NC(C)=O)C(=O)N[C@H](Cc2ccc(NC(C)=O)cc2)C(=O)N[C@@H](CC(C)C)C(=O)N[C@@H](CCCCNC(C)C)C(=O)N2CCC[C@H]2C(=O)N[C@H](C)C(N)=O)cc1 (single isomer, unassigned) [Betide No. 1 isomer (2), Ac-D-2Nal-(4Cl)D-Phe-γ-(3-pyridyl)amidoGly-Ser-Aph(acetyl)-D-Aph(acetyl)-Leu-Lys(isopropyl)-Pro-D-Ala-NH2] was tested, and the “anti-ovulatory activity” value (dosage 0.5 μg) was 3 out of 4, the “anti-ovulatory activity” value (dosage 1 μg) was 6 out of 14 and the “anti-ovulatory activity” value (dosage 2.5 μg) was 0 out of 5.
With “Ac-D-2Nal-D-Cpa-D-3Pal-Ser-Aph(acetyl)-D-Aph(acetyl)-D/L-Agl(acetyl)-Lys(isopropyl)-Pro-D-Ala-NH2 [Betide No. 6C]” the “anti-ovulatory activity” value (dosage 0.5 μg) was 4 out of 8 and the “anti-ovulatory activity” value (dosage 10 μg) was 0 out of 8.
“Ac-D-2Nal-(4Cl)D-Phe-D-3Pal-Ser-Aph(acetyl)-D-Aph(acetyl)-Leu-Lys(isopropyl)-Pro-D/L-Agl(methyl)-NH2 [Example 8B]” was tested, and the “anti-ovulatory activity” value (dosage 2.5 μg) was 0/8.
In the case of CC(=O)Nc1ccc(C[C@H](NC(=O)C(NC(=O)[C@@H](Cc2cccnc2)NC(=O)[C@@H](Cc2ccc(Cl)cc2)NC(=O)[C@@H](Cc2ccc3ccccc3c2)NC(C)=O)N(C)C=O)C(=O)N[C@H](Cc2ccc(NC(C)=O)cc2)C(=O)N[C@@H](CC(C)C)C(=O)N[C@@H](CCCCNC(C)C)C(=O)N2CCC[C@H]2C(=O)N[C@H](C)C(N)=O)cc1 (single isomer, unassigned) [Betide No. 2 other distereomer, Ac-D-2Nal-D-4Cpa-D-3Pal-D/L-(methyl,formyl)aminoGly-Aph(Ac)-D-Aph(Ac)-Leu- Lys(isopropyl)-Pro-D-Ala-NH2], the “anti-ovulatory activity” value (dosage 2.5 μg) is reported as 8 out of 8.
With CC(=O)Nc1ccc(C[C@H](NC(=O)C(NC(=O)CO)NC(=O)[C@@H](Cc2cccnc2)NC(=O)[C@@H](Cc2ccc(Cl)cc2)NC(=O)[C@@H](Cc2ccc3ccccc3c2)NC(C)=O)C(=O)N[C@H](Cc2ccc(NC(C)=O)cc2)C(=O)N[C@@H](CC(C)C)C(=O)N[C@@H](CCCCNC(C)C)C(=O)N2CCC[C@H]2C(=O)N[C@H](C)C(N)=O)cc1 (single isomer, unassigned) [Betide No. 2A other isomer, Ac-D-2Nal-D-4Cpa-D-3Pal-D/L-Agl(HO-Ac)Aph(Ac)-D-Aph(Ac)-Leu-Lys(isopropyl)-Pro-D-Ala-NH2] the “anti-ovulatory activity” value (dosage 5 μg) was 4 out of 8.
For “Ac-D-2Nal-D-Cpa-D-3Pal-Ser-Aph(acetyl)-D-Aph(acetyl)-D/L-Agl(methyl,isobutyryl)-Lys(isopropyl)-Pro-D-Ala-NH2 [Betide No. 6B]”, the “anti-ovulatory activity” value (dosage 1 μg) was 2 out of 8 and the “anti-ovulatory activity” value (dosage 2.5 μg) was 0 out of 8.
“Ac-γ-(2-naphthoyl)amidoGly-4Cl-D-Phe-D-3Pal-Ser-Aph(atz)-D-Aph(atz)- Leu-Lys(isopropyl)-Pro-D-Ala-NH2 [Betide No. 3A first isomer]” was tested, and the “anti-ovulatory activity” value (dosage 1 μg) was 5 out of 8 and the “anti-ovulatory activity” value (dosage 2.5 μg) was 0/8.
With “Ac-D-2Nal-(4Cl)D-Phe-D-3Pal-Ser-(4-acetyl-aminobenzyl)D/L-amidoGly-D-Aph(acetyl)-Leu-Lys(isopropyl)-Pro-D-Ala-NH2 [Betide No. 4]” the “anti-ovulatory activity” value (dosage 5 μg) was 2 out of 8.
With CC(=O)Nc1ccc(C[C@H](NC(=O)[C@H](CO)NC(=O)[C@@H](Cc2cccnc2)NC(=O)[C@@H](Cc2ccc(Cl)cc2)NC(=O)C(NC(C)=O)N(C)C(=O)c2ccc3ccccc3c2)C(=O)N[C@H](Cc2ccc(NC(C)=O)cc2)C(=O)N[C@@H](CC(C)C)C(=O)N[C@@H](CCCCNC(C)C)C(=O)N2CCC[C@H]2C(=O)N[C@H](C)C(N)=O)cc1 (single isomer, unassigned) [Betide No. 3C first isomer, Ac-D/L-Agl(methyl,2-naphthoyl)-D-4Cpa-D-3Pal-Ser-Aph(acetyl)-D-Aph(acetyl)-Leu-Lys(isopropyl)-Pro-D-Ala-NH2] the “anti-ovulatory activity” value (dosage 1 μg) was 2 out of 8 and the “anti-ovulatory activity” value (dosage 2.5 μg) was “fully active”.
In the case of CC(=O)Nc1ccc(C[C@H](NC(=O)C(NC=O)NC(=O)[C@@H](Cc2cccnc2)NC(=O)[C@@H](Cc2ccc(Cl)cc2)NC(=O)[C@@H](Cc2ccc3ccccc3c2)NC(C)=O)C(=O)N[C@H](Cc2ccc(NC(C)=O)cc2)C(=O)N[C@@H](CC(C)C)C(=O)N[C@@H](CCCCNC(C)C)C(=O)N2CCC[C@H]2C(=O)N[C@H](C)C(N)=O)cc1 (single isomer, unassigned) [Betide No. 2B other isomer, Ac-D-2Nal-D-4Cpa-D-3Pal-D/L-Agl(formyl)-Aph(Ac)-D-Aph(Ac)-Leu-Lys(isopropyl)-Pro-D-Ala-NH2], the “anti-ovulatory activity” value (dosage 1 μg) is reported as 6 out of 8 and the “anti-ovulatory activity” value (dosage 5 μg) is reported as 0/8.
In the case of “Ac-γ-(2-naphthoyl)amidoGly-4Cl-D-Phe-D-3Pal-Ser-Aph(atz)-D-Aph(atz)- Leu-Lys(isopropyl)-Pro-D-Ala-NH2 [Betide No. 3A second isomer]”, the “anti-ovulatory activity” value (dosage 1 μg) is reported as 4 out of 8 and the “anti-ovulatory activity” value (dosage 2.5 μg) is reported as 0/3.
